The text below walks through data of PubChem BioAssay (NCI).

The GI50 is the concentration that inhibits growth by half. A word on the TGI: it is the concentration at which net growth stops. A high value points to less potent growth arrest.

Assay in all cases: DTP human tumour cell line panel, 48 h
Test [1] deals with SF-268 CNS.
Test [2] has as its system SK-MEL-28 melanoma.
The test system of test [3] is UO-31 renal.
Test [4] has as its system 786-0 renal.
Test [5] concerns HS 578T breast.
Test [6] relates to HCT-15 colon.
The test system of test [7] is PC-3 prostate.
For test [8], the system named is SR leukemia.
Test [9] relates to CCRF-CEM leukemia.
Test [10] concerns SF-539 CNS.

SMILES strings stand for the structures.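 Assay format: 96-well plates, 48-hour exposure. GI50 = concentration required for 50% inhibition of growth. At the TGI there is no net growth.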

On to `CC(=O)NS(=O)(=O)c1ccc(-n2nc(-c3ccccc3)cc2C2=CC(=O)C=CC2=O)cc1`, for which the GI50 is greater than 100 µM in test [1]; greater than 100 µM in test [2]; greater than 100 µM in test [3]; 54.4 µM in test [4]; 22.3 µM in test [5]; greater than 100 µM in test [6]. The GI50 in test [7] is greater than 100 µM. Moreover, the TGI in test [1], in test [2], in [3], in test [4], in test [5] and in [6] was greater than 100 µM throughout. Besides, in test [7], the TGI is greater than 100 µM.

With `COC(=O)C12C3C4C1C1C2C3C41C(=O)N(C(C)C)C(C)C` (configuration not stated), the TGI in test [1], in test [8], in test [9], in [2], in [3] and in test [10] was greater than 100 µM in each case. For the same compound, the TGI in test [4] and in test [6] was greater than 100 µM in each case.

As to `O=C1OC2C=CC1C1(CCOC1=O)C2` (configuration not stated), the TGI in [1], in test [8], in [9], in test [2], in [3] and in [10] was greater than 100 µM each time. The TGI in test [4] and in test [6] was greater than 100 µM throughout.

As to `c1ccc(-c2[nH]c(-c3ccccc3)c(-c3cnccn3)c2-c2cnccn2)cc1`, the TGI in test [1], in test [8], in test [9], in test [2], in test [3] and in test [10] was greater than 100 µM throughout. Moreover, the TGI in test [4] and in [6] was greater than 100 µM each time.

Regarding `N=C1C(c2nc(-c3ccc(Br)cc3)cs2)=C(O)CN1CC1CCCO1` (configuration not stated), the GI50 in test [1] was greater than 100 µM; in test [8], greater than 100 µM; in [9] it was greater than 100 µM; in test [2] it was greater than 100 µM; in test [3], greater than 100 µM; in test [10] it was greater than 100000 nM. Also, the GI50 in test [4], in test [6] and in test [7] was greater than 100 µM throughout. Further, the TGI in [1], in [8], in test [9], in test [2], in [3] and in [10] was greater than 100 µM in each case. Further, the TGI in [4], in test [6] and in [7] was greater than 100 µM each time.

`Cc1ccc(/C=C2\CN(Cc3cn(CCNc4ccnc5cc(Cl)ccc45)nn3)C/C(=C\c3ccc(C)cc3)C2=O)cc1`: the GI50 in [1] was 2.04 µM; in test [2], 1.74 µM; in [3], 1.44 µM; in [10], 1790 nM; in test [4], 1.85 µM; in test [5] it was 1.97 µM. Also, the GI50 in test [7] was 1.75 µM. Moreover, the TGI was 4.2 µM in test [1]; 3.26 µM in [2]; 2.85 µM in [3]; 3.26 µM in test [10]; 3.36 µM in test [4]; 5.53 µM in [5]. The compound further yielded a TGI in test [7] of 3.74 µM.

Regarding `CCOC(=O)/C(C#N)=C(N)/C(=N\Nc1cccc(C(F)(F)F)c1)C(=O)OCC`, the TGI in test [1], in test [8], in test [9], in test [2], in [3] and in [10] was greater than 100 µM throughout. Moreover, the total growth inhibition concentration (TGI) in [4] and in [6] was greater than 100 µM in each case.

In the case of `O=C(O)c1oc2cccc3c2c1CCC3`, the TGI in test [1], in test [8], in [9], in [2], in [3] and in [10] was greater than 100 µM each time. Besides, the TGI in test [4] and in [6] was greater than 100 µM throughout.

As to `Cc1cccc(O)c(=O)c1`, the TGI in test [1] was greater than 100 µM; in [8], 80.6 µM; in test [9], 33.8 µM; in [2], greater than 100 µM; in test [3], greater than 100 µM; in [10], greater than 100 µM. Also, the TGI in [4] and in test [6] was greater than 100 µM in each case.

Regarding `COc1ccc(N2C(=O)C(N3C(=O)C=CC3=O)C2C=O)cc1` (configuration not stated), the TGI in [1], in test [8], in [9], in test [2], in test [3] and in test [10] was greater than 100 µM throughout. For the same compound, the TGI in test [4] and in [6] was greater than 100 µM in each case.
